Patent US9301923B2, “Lipids, lipid compositions, and methods of using them” (NOVARTIS AG, priority 2009, dated 2016)
Values joined by “and” are separate entries in the source; they are usually repeats but may differ in a detail not shown here. Equal values may be shown once. Read-outs that look alike come from different tables or passages of the source.

Legend:
[1] = pKa of the lipid by TNS fluorescence; format: physicochemical
Outline: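 Lipid dissolved in ethanol (2 mM stock) and measured with TNS across eight buffers of differing pH, in water at standard temperature and pressure. Normalized fluorescence intensity plotted against pH and points joined by a smooth line to derive pKa, precise to about 0.2 units.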

[2] = tested on: Factor VII; assay: Factor VII activity assay, in vivo liver delivery of FVII siRNA LNP; parameters: species or system mouse; settings: for FVII inhib %: ~48 h
Outline: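 Female CD-1 mice (~25 g) given a single i.v. tail-vein dose of FVII siRNA in LNPs (cationic, stealth, neutral lipids), dosed as mg siRNA/kg. Plasma collected ~48 h post-injection; FVII activity read against a standard curve from pooled vehicle-control plasma.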

[3] = tested on: PLK-1 mRNA in Hep3B tumors; assay: Hep3B tumor study, PLK-1 mRNA KD in tumor tissue; format: in vivo, human; settings: Hep3B tumor, mouse, i.v., LNP composition as in the source
Excerpt: Formulated siRNAs are made up of double stranded siRNA sequences specific to a target mRNA sequence, and are in the form of lipid nucleotid particles (LNPs) containing cationic lipids, stealth lipids and neutral lipids, as provided in the Examples below. The siRNA construct for use in targeting the liver is specific to Factor VII. The siRNA construct for use in targeting tumors is specific to PLK1-424, which is published by Judge et al., See, J Clin Invest. 2009 March; 119(3):661-73; doi: 10.1172/JCI37515). • 1. FVII siRNA duplex sequence
Hep3B tumors are established in female nude mice by sc injection of 7×10^6 cells in 100 ul PBS into the left flank. Mice are randomized into treatment groups 10-14 days after seeding as tumors reached an average size of 100 mm^3. siRNA formulated LNP formulations are administered at various dose levels intravenously via the lateral tail vein calculated on a mg siRNAs/kg basis according to individual animal weights (10 ml/kg injection volume). Mice are euthanized by CO2 inhalation at various time points and the tumors are harvested for mRNA quantitation. Lipids with a wide range of pKa (5.3-6.6) are used in the LNP formulations. Tumors are measured in 2 dimensions (width×length) to assess tumor growth using digital calipers. Tumor volume is calculated using the equation [a×b×b/2], where a equals the largest diameter and b equals the smallest diameter.
About 30-50 mg tumor tissue is homogenized in tissue lysis buffer in a Qiagen homogenizer followed by centrifugation to clarify lysates. Total RNA is isolated using RNeasy isolation kit (catalog number 74106) according to the manufacture's protocol. PLK-1 mRNA is analyzed by quantitative PCR and normalized to human GAPDH. Applied Biosystems human PLK-1 gene expression assay Hs00983229_m1 and human GAPDH endogenous control cat number 4326317E are used for mRNA detection.
The pKa in all tables refers to the pKa of the cationic lipid. Where multiple doses are indicated (e.g., 3×5), the first number indicates the number of doses given and the second number indicates the amount per dose in mg siRNA (biologically active agent) per kg mouse. In general the multiple doses are administered at 24 hour intervals, and tissues for mRNA quantitation are harvested 24 hours after the last dose.

[4] = Particle size and PDI by dynamic light scattering (Malvern Zetasizer); format: physicochemical
Outline: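 Nanoparticles diluted in PBS to a count rate of about 200-400 kcts and measured by dynamic light scattering; size given as intensity-weighted average diameter, with polydispersity index from the same measurement.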

[5] = dose 3 mg/kg siRNA i.v., lipid/DSPC/CHOL/AVANTI 880150P 50/28/18/4, N/P 3.43
[6] = dose 3 mg/kg siRNA i.v., lipid/no neutral lipid/CHOL/AVANTI 880150P 50/0/46/4, N/P 3.43
[7] = lipid/DSPC/CHOL/AVANTI 880150P 50/28/18/4, N/P 3.43
[8] = lipid/no neutral lipid/CHOL/AVANTI 880150P 50/0/46/4, N/P 3.43
[9] = dose 1 mg/kg siRNA i.v., lipid/no neutral lipid/CHOL/GM-020 NOF 60/0/36/4, N/P 3
[10] = LNP formulation with PLK1 siRNA, helper, neutral and stealth lipid, molar ratio and N/P as in the table
[11] = lipid/no neutral lipid/CHOL/GM-020 NOF 60/0/36/4, N/P 3
[12] = lipid/no neutral lipid/CHOL/GM-020 NOF 60/0/34/6, N/P 3
[13] = lipid/no neutral lipid/CHOL/GM-020 NOF 60/0/38/2, N/P 3

Structure (SMILES) | pKa ([1]; pKa) | FVII inhib % [2, 6] [%] | PLK1 inhibition % ([3]; 1 × 1 mg siRNA/kg) [%] | Final size (nm) [4, 7] | PDI [4, 7] | Final size (nm) [4, 8] [nm] | PDI [4, 8] | Final size (nm) [4, 10] [nm] | Final size (nm) [4, 11] | PDI [4, 11] | further results
CCCCC/C=C\C/C=C\CCCCCCCCOCC(CN1CCC(CCC)C1)OCCOCCO[C@H]1CC[C@@]2(C)C(=CCC3C2CC[C@@]2(C)C3CC[C@@H]2[C@H](C)CCCC(C)C)C1 (stereo partly drawn) [E0025] | 5.45 | 94.2 | 27 | 97 nm | 0.22 | 73 | 0.12 |  |  |  | FVII inhib % [2, 5]: 63%; Final size (nm) ([4]; LNP formulation with PLK1 siRNA, helper, neutral and stealth lipid, molar ratio and N/P as in the table, stealth lipid S004, molar ratio 45/43/10/2, N/P 4): 118.8 nm; Final size (nm) ([4]; LNP formulation with PLK1 siRNA, helper, neutral and stealth lipid, molar ratio and N/P as in the table, stealth lipid S011, molar ratio 40/48/10/2, N/P 4): 85.63 nm; Final size (nm) ([4]; LNP formulation with PLK1 siRNA, helper, neutral and stealth lipid, molar ratio and N/P as in the table, stealth lipid S011, molar ratio 60/38/2, N/P 4): 95.73 nm
CCCCC/C=C\C/C=C\CCCCCCCCOCC(CN1CCC(OC)C1)OCCCOCCCO[C@H]1CC[C@@]2(C)C(=CC[C@H]3[C@@H]4CC[C@H]([C@H](C)CCCC(C)C)[C@@]4(C)CC[C@@H]32)C1 (stereo partly drawn) [E0088] | 5.79 |  |  |  |  |  |  | 146.2 | 110.7 nm | 0.080 | FVII inhib % [2, 9]: 50.8%; PLK1 inhibition % ([3]; 1 × 5 mg siRNA/kg): 71%
CCCCC/C=C\C/C=C\CCCCCCCCCCOCC(CN1CCCC1C)OCCCOCCCO[C@H]1CC[C@@]2(C)C(=CC[C@H]3[C@@H]4CC[C@H]([C@H](C)CCCC(C)C)[C@@]4(C)CC[C@@H]32)C1 (stereo partly drawn) [E0095] | 5.84 |  |  |  |  |  |  | 96.09 | 125.1 nm | 0.091 | FVII inhib % [2, 9]: 13%; PLK1 inhibition % ([3]; 1 × 0.1 mg siRNA/kg): 23%
CCCCC/C=C\C/C=C\CCCCCCCCOCC(CN1CCC(O)C1)OCCOCCO[C@H]1CC[C@@]2(C)C(=CC[C@H]3[C@@H]4CC[C@H]([C@H](C)CCCC(C)C)[C@@]4(C)CC[C@@H]32)C1 (stereo partly drawn) [E0045] | 4.73 | 90.7 | 36 | 100 nm | 0.18 | 103 | 0.25 | 103.2 |  |  | FVII inhib % [2, 5]: 10.4%
CCCCC/C=C\C/C=C\CCCCCCCCOCC(CN1CCCCC1)OCCOCCO[C@H]1CC[C@@]2(C)C(=CCC3C2CC[C@@]2(C)C3CC[C@@H]2[C@H](C)CCCC(C)C)C1 (stereo partly drawn) [E0014] | 6.4 | 97.4 |  | 104 nm and 95 nm | 0.151 and 0.148 | 148 | 0.05 | 82.21 | 101.5 nm and 94.6 nm | 0.182 and 0.092 | pKa [1]: 6.4; FVII inhib % ([2]; dose 1 mg/kg siRNA i.v., lipid/DSPC/CHOL/AVANTI 880150P 50/28/18/4, N/P 3.43): 72.1%; FVII inhib % ([2]; dose 1 mg/kg siRNA i.v., lipid/no neutral lipid/CHOL/GM-020 NOF 60/0/34/6, N/P 3): 25%; FVII inhib % ([2]; dose 1 mg/kg siRNA i.v., lipid/no neutral lipid/CHOL/GM-020 NOF 60/0/36/4, N/P 3, 1 mg/kg): 68.5% and 37.6%; FVII inhib % ([2]; dose 1 mg/kg siRNA i.v., lipid/no neutral lipid/CHOL/GM-020 NOF 60/0/38/2, N/P 3): 71.5%; FVII inhib % ([2]; dose 3 mg/kg siRNA i.v., lipid/DSPC/CHOL/AVANTI 880150P 50/28/18/4, N/P 3.43, 3 mg/kg): 98.6% and 95.8%; FVII inhib % ([2]; dose 3 mg/kg siRNA i.v., lipid/no neutral lipid/CHOL/GM-020 NOF 60/0/34/6, N/P 3): 96.6%; FVII inhib % ([2]; dose 3 mg/kg siRNA i.v., lipid/no neutral lipid/CHOL/GM-020 NOF 60/0/36/4, N/P 3): 94%; FVII inhib % ([2]; dose 3 mg/kg siRNA i.v., lipid/no neutral lipid/CHOL/GM-020 NOF 60/0/38/2, N/P 3): 96.2%; in vivo Factor VII inhibition ([2]; formulation containing the cationic lipid, RNAi construct specific to Factor VII, liver): 97.4%; PLK1 inhibition % ([3]; 1 × 10 mg siRNA/kg): 22%; Final size (nm) [4, 12]: 85.8 nm; PDI [4, 12]: 0.106; Final size (nm) [4, 13]: 141 nm; PDI [4, 13]: 0.122
CCCCCCCC/C=C\CCCCCCCCOCOCC(CN1CCCCC1)OCCCOC(=O)CCC(=O)O[C@H]1CC[C@@]2(C)C(=CC[C@H]3[C@@H]4CC[C@H]([C@H](C)CCCC(C)C)[C@@]4(C)CC[C@@H]32)C1 (stereo partly drawn) [E0160] | 6.05 |  | 38 |  |  |  |  | 100.8 |  |  | 
CCCCCCCC/C=C\CCCCCCCCOCC(CN1CCOCC1)OCCOC(=O)CO[C@H]1CC[C@@]2(C)C(=CCC3[C@@H]4CC[C@H]([C@H](C)CCCC(C)C)[C@@]4(C)CC[C@@H]32)C1 (stereo partly drawn) [E0128] | 5.01 |  | 23 |  |  |  |  | 83.47 |  |  | 
CCCCCCCC/C=C\CCCCCCCCOCC(CN1CC[C@@H]2CCCC[C@H]2C1)OCCOCCO[C@H]1CC[C@@]2(C)C(=CC[C@H]3[C@@H]4CC[C@H]([C@H](C)CCCC(C)C)[C@@]4(C)CC[C@@H]32)C1 (stereo partly drawn) [E0120] | 5.48 |  | 28 |  |  |  |  | 87 |  |  | 
CCCCCCCC/C=C\CCCCCCCCOCC(CN1CCCCC1)OCCOC(=O)CCCC(=O)O[C@H]1CC[C@@]2(C)C(=CC[C@H]3[C@@H]4CC[C@H]([C@H](C)CCCC(C)C)[C@@]4(C)CC[C@@H]32)C1 (stereo partly drawn) [E0151] | 6.06 |  | 25 |  |  |  |  | 103.8 |  |  | PLK1 inhibition % ([3]; 1 × 0.1 mg siRNA/kg): 7%
CCCCCCCC/C=C\CCCCCCCCOCC(CN1CCOCC1)OCCOCC(=O)OC1CC[C@@]2(C)C(=CCC3C2CC[C@@]2(C)C3CC[C@@H]2[C@H](C)CCCC(C)C)C1 (stereo partly drawn) [E0167] | 5.21 |  | 23 |  |  |  |  | 86.57 |  |  | 
